Data as given in patent US20210101928A1 (Sage Therapeutics, Inc., priority 2017, published 2021).

molecular target: GABAA receptor ([35S]-TBPS binding, rat brain cortical membranes); test: Steroid inhibition of [35S]-TBPS binding; settings: Table II-2, 3 nM [35S]-TBPS, in the presence of 5 mM GABA, read-out: TBPS IC50
Description: [^35S]-t-Butylbicyclophosphorothionate (TBPS) binding assays using rat brain cortical membranes in the presence of 5 mM GABA has been described (Gee et al, J. Pharmacol. Exp. Ther. 1987, 241, 346-353; Hawkinson et al, Mol. Pharmacol. 1994, 46, 977-985; Lewin, A. H et al., Mol. Pharmacol. 1989, 35, 189-194).
Briefly, cortices are rapidly removed following decapitation of carbon dioxide-anesthetized Sprague-Dawley rats (200-250 g). The cortices are homogenized in 10 volumes of ice-cold 0.32 M sucrose using a glass/teflon homogenizer and centrifuged at 1500×g for 10 min at 4° C. The resultant supernatants are centrifuged at 10,000×g for 20 min at 4° C. to obtain the P2 pellets. The P2 pellets are resuspended in 200 mM NaCl/50 mM Na—K phosphate pH 7.4 buffer and centrifuged at 10,000×g for 10 min at 4° C. This washing procedure is repeated twice and the pellets are resuspended in 10 volumes of buffer. Aliquots ([…]) of the membrane suspensions are incubated with 3 nM [^35S]-TBPS and […] aliquots of test drug dissolved in dimethyl sulfoxide (DMSO) (final 0.5%) in the presence of 5 mM GABA. The incubation is brought to a final volume of 1.0 mL with buffer. Nonspecific binding is determined in the presence of […] and ranged from 15 to 25%. Following a 90 min incubation at room temp, the assays are terminated by filtration through glass fiber filters (Schleicher and Schuell No. 32) using a cell harvester (Brandel) and rinsed three times with ice-cold buffer. Filter bound radioactivity is measured by liquid scintillation spectrometry. Non-linear curve fitting of the overall data for each drug averaged for each concentration is done using Prism (GraphPad). […] The concentration of test compound producing 50% inhibition (IC50) of specific binding and the maximal extent of inhibition (Imax) are determined for the individual experiments with the same model used for the overall data and then the means±SEM.s of the individual experiments are calculated.
Various compounds are or can be screened to determine their potential as modulators of [^35S]-TBPS binding in vitro. These assays are or can be performed in accordance with the above.

Structure (SMILES)	IC50
CCOC[C@@]1(O)CC[C@@]2(CC)[C@H](CC[C@H]3[C@@H]4CC[C@H](C(=O)Cn5nccn5)[C@@]4(C)CC[C@@H]32)C1 [II-75, 1-((3R,5R,8S,9S,10S,13S,14S,17S)-3-(ethoxymethyl)-10-ethyl-3-hydroxy-13-methylhexadecahydro-1H-cyclopenta[a]phenanthren-17-yl)-2-(2H-1,2,3-triazole-2-yl)ethan-1-one]	10 to 100 nM
CCOC[C@@]1(O)CC[C@@]2(CC)[C@H](CC[C@H]3[C@@H]4CC[C@H](C(=O)Cn5ccnn5)[C@@]4(C)CC[C@@H]32)C1 [II-76, 1-((3R,5R,8S,9S,10S,13S,14S,17S)-3-(ethoxymethyl)-10-ethyl-3-hydroxy-13-methylhexadecahydro-1H-cyclopenta[a]phenanthren-17-yl)-2-(1H-1,2,3-triazol-1-yl)ethan-1-one]	10 to 100 nM
CCOC[C@@]1(O)CC[C@@]2(CC)[C@@H](CC[C@H]3[C@@H]4CC[C@H](C(=O)Cn5nnnc5C)[C@@]4(C)CC[C@@H]32)C1 [II-78, 1-((3R,5S,8S,9S,10S,13S,14S,17S)-3-(ethoxymethyl)-10-ethyl-3-hydroxy-13-methylhexadecahydro-1H-cyclopenta[a]phenanthren-17-yl)-2-(5-methyl-1H-tetrazol-1-yl)ethan-1-one]	100 to 1000 nM
CCOC[C@@]1(O)CC[C@@]2(CC)[C@H](CC[C@H]3[C@@H]4CC[C@H](C(=O)Cn5ccc(C#N)n5)[C@@]4(C)CC[C@@H]32)C1 [II-79, 1-(2-((3R,5R,8S,9S,10S,13S,14S,17S)-3-(ethoxymethyl)-10-ethyl-3-hydroxy-13-methylhexadecahydro-1H-cyclopenta[a]phenanthren-17-yl)-2-oxoethyl)-1H-pyrazole-3-carbonitrile]	< 10 nM
C=C[C@]12CC[C@@](C)(O)C[C@@H]1CC[C@H]1[C@@H]3CC[C@H](C(C)=O)[C@@]3(C)CC[C@@H]12 [II-A4, 1((3R,5S,8S,9S,10R,13S,14S,17S)-3-hydroxy-3,13-dimethyl-10-vinylhexadecahydro-1H-cyclopenta[a]phenanthren-17-yl)ethan-1-one]	10 to 100 nM
CC[C@]12CC[C@@](C)(O)C[C@@H]1CC[C@H]1[C@@H]3CC[C@H](C(C)=O)[C@@]3(C)CC[C@@H]12 [II-A5, 1-((3R,5S,8S,9S,10S,13S,14S,17S)-10-ethyl-3-hydroxy-3,13-dimethylhexadecahydro-1H-cyclopenta [a]phenanthren-17-yl)ethan-1-one]	10 to 100 nM
CC[C@]12CC[C@@](C)(O)C[C@@H]1CC[C@H]1[C@@H]3CC[C@H](C(=O)Cn4cccn4)[C@@]3(C)CC[C@@H]12 [II-A7, 1-((3R,5S,8S,9S,10S,13S,14S,17S)-10-ethyl-3-hydroxy-3,13-dimethylhexadecahydro-1H-cyclopenta [a]phenanthren-17-yl)-2-(1H-pyrazol-1-yl)ethan-1-one]	10 to 100 nM
CC[C@]12CC[C@@](C)(O)C[C@@H]1CC[C@H]1[C@@H]3CC[C@H](C(=O)Cn4ccnn4)[C@@]3(C)CC[C@@H]12 [II-A8]	< 10 nM
CC[C@]12CC[C@@](C)(O)C[C@@H]1CC[C@H]1[C@@H]3CC[C@H](C(=O)Cn4nccn4)[C@@]3(C)CC[C@@H]12 [II-A8a]	10 to 100 nM
CC[C@]12CC[C@@](C)(O)C[C@@H]1CC[C@H]1[C@@H]3CC[C@H](C(=O)CN4CCOCC4)[C@@]3(C)CC[C@@H]12 [II-A9, 1-((3R,5S,8S,9S,10S,13S,14S,17S)-10-ethyl-3-hydroxy-3,13-dimethylhexadecahydro-1H-cyclopenta[a]phenanthren-17-yl)-2-morpholinoethan-1-one]	10 to 100 nM
CC[C@]12CC[C@@](C)(O)C[C@@H]1CC[C@H]1[C@@H]3CC[C@H](C(=O)CN4CCN(S(C)(=O)=O)CC4)[C@@]3(C)CC[C@@H]12 [II-A10, 1-((3R,5S,8S,9S,10S,13S,14S,17S)-10-ethyl-3-hydroxy-3,13-dimethylhexadecahydro-1H-cyclopenta [a]phenanthren-17-yl)-2-(4-(methylsulfonyl)piperazin-1-yl)ethan-1-one]	10 to 100 nM
CC[C@]12CC[C@@](C)(O)C[C@@H]1CC[C@H]1[C@@H]3CC[C@H](C(=O)CO)[C@@]3(C)CC[C@@H]12 [II-A11, 1-((3R,5S,8S,9S,10S,13S,14S,17S)-10-ethyl-3-hydroxy-3,13-dimethylhexadecahydro-1H-cyclopenta[a]phenanthren-17-yl)-2-hydroxyethan-1-one]	10 to 100 nM
CC[C@]12CC[C@](O)(COC)C[C@H]1CC[C@H]1[C@@H]3CC[C@H](C(=O)N4CCCC[C@@H]4C)[C@@]3(C)CC[C@@H]12 [II-B11, ((3R,5R,8S,9S,10S,13S,14S,17S)-10-ethyl-3-hydroxy-3-(methoxymethyl)-13-methylhexadecahydro-1H-cyclopenta[a]phenanthren-17-yl)((S)-2-methylpiperidin-1-yl)methanone]	10 to 100 nM
CCOC[C@@]1(O)CC[C@@]2(CC)[C@H](CC[C@H]3[C@@H]4CC[C@H](C(C)=O)[C@@]4(C)CC[C@@H]32)C1 [II-C4, 1-((3R,5R,8S,9S,10S,13S,14S,17S)-3-(ethoxymethyl)-10-ethyl-3-hydroxy-13-methylhexadecahydro-1H-cyclopenta[a]phenanthren-17-yl)ethan-1-one]	10 to 100 nM
CCOC[C@@]1(O)CC[C@@]2(CC)[C@H](CC[C@H]3[C@@H]4CC[C@H](C(=O)Cn5cc(C#N)cn5)[C@@]4(C)CC[C@@H]32)C1 [II-C8, 1-(2-((3R,5R,8S,9S,10S,13S,14S,17S)-3-(ethoxymethyl)-10-ethyl-3-hydroxy-13-methylhexadecahydro-1H-cyclopenta[a]phenanthren-17-yl)-2-oxoethyl)-1H-pyrazole-4-carbonitrile]	< 10 nM
CCOC[C@@]1(O)CC[C@@]2(CC)[C@@H](CC[C@H]3[C@@H]4CC[C@H](C(C)=O)[C@@]4(C)CC[C@@H]32)C1 [II-D9]	10 to 100 nM
CCOC[C@@]1(O)CC[C@@]2(CC)[C@@H](CC[C@H]3[C@@H]4CC[C@H](C(=O)N5CCCC[C@@H]5C)[C@@]4(C)CC[C@@H]32)C1 [II-D11, ((3R,5S,8S,9S,10S,13S,14S,17S)-3-(ethoxymethyl)-10-ethyl-3-hydroxy-13-methylhexadecahydro-1H-cyclopenta[a]phenanthren-17-yl)((S)-2-methylpiperidin-1-yl)methanone]	100 to 1000 nM
CCOC[C@@]1(O)CC[C@@]2(CC)[C@@H](CC[C@H]3[C@@H]4CC[C@H](C(=O)Cn5ccc(C#N)n5)[C@@]4(C)CC[C@@H]32)C1 [II-D13, 1-(2-((3R,5S,8S,9S,10S,13S,14S,17S)-3-(ethoxymethyl)-10-ethyl-3-hydroxy-13-methylhexadecahydro-1H-cyclopenta[a]phenanthren-17-yl)-2-oxoethyl)-1H-pyrazole-3-carbonitrile]	10 to 100 nM
CC[C@]12CC[C@](O)(COC)C[C@@H]1CC[C@H]1[C@@H]3CC[C@H](C(=O)Nc4ccc(C#N)cc4C)[C@@]3(C)CC[C@@H]12 [II-E6, (3R,5S,8S,9S,10S,13S,14S,17S)-N-(4-cyano-2-methylphenyl)-10-ethyl-3-hydroxy-3-(methoxymethyl)-13-methylhexadecahydro-1H-cyclopenta[a]phenanthrene-17-carboxamide]	< 10 nM
CC[C@]12CC[C@](O)(COC)C[C@@H]1CC[C@H]1[C@@H]3CC[C@H](C(=O)Cn4ccc(C#N)n4)[C@@]3(C)CC[C@@H]12 [II-E8, 1-(2-((3R,5S,8S,9S,10S,13S,14S,17S)-10-ethyl-3-hydroxy-3-(methoxymethyl)-13-methylhexadecahydro-1H-cyclopenta[a]phenanthren-17-yl)-2-oxoethyl)-1H-pyrazole-3-carbonitrile]	< 10 nM
CO[C@H](C)[C@]12CC[C@@](C)(O)C[C@H]1CC[C@H]1[C@@H]3CC[C@H](C(=O)Cn4nnnc4C)[C@@]3(C)CC[C@@H]12 [II-E13, 1-((3R,5R,8S,9S,10R,13S,14S,17S)-3-hydroxy-10-((R)-1-methoxyethyl)-3,13-dimethylhexadecahydro-1H-cyclopenta[a]phenanthren-17-yl)-2-(5-methyl-1H-tetrazol-1-yl)ethan-1-one]	100 to 1000 nM
CC[C@]12CC[C@@](C)(O)C[C@H]1CC[C@H]1[C@@H]3CC[C@H](C(=O)Nc4ccccc4)[C@@]3(C)CC[C@@H]12 [II-G3, (3R,5R,8S,9S,10S,13S,14S,17S)-10-ethyl-3-hydroxy-3,13-dimethyl-N-phenylhexadecahydro-1H-cyclopenta Ialphenanthrene-17-carboxamide]	< 10 nM
